The test system of test [1] is methicillin-sensitive Staphylococcus aureus. The test can be described thus: MIC by broth micro-dilution (CLSI), methicillin-sensitive S. aureus. The class given is cell-based. To be noted: MSSA S. aureus ATCC29213.
Test [2] deals with carbapenem sensitive Escherichia coli. In words: MIC by broth micro-dilution (CLSI), carbapenem sensitive E. coli. The class given is cell-based. (In broth dilution the organism is exposed to a series of concentrations in liquid medium.)
Test [3] concerns carbapenemase producing K. pneumoniae. The test can be described thus: MIC by broth micro-dilution (CLSI), carbapenemase producing K. pneumoniae. The class given is cell-based, Klebsiella pneumoniae.
Test [4] relates to carbapenem sensitive Pseudomonas aeruginosa. The test can be described thus: MIC by broth micro-dilution (CLSI), carbapenem sensitive P. aeruginosa. The class given is cell-based.
Setting [5] is: Staphylococcus aureus, ATCC 29213 / MSSA, read-out: MIC.
[6] abbreviates: Escherichia coli, ATCC25922, ESBL −ve E. coli ATCC25922, read-out: MIC.
Where [7] appears, read: Klebsiella pneumoniae, ATCCBAA1705, KPC-2 K. pneumoniae ATCC BAA-1705, read-out: MIC.
The mark [8] stands for this setting: Pseudomonas aeruginosa, ATCC27853, Meropenem susceptible P. aeruginosa ATCC27853, read-out: MIC.

17 compounds from patent US11180504B2 (ORCHID PHARMA LTD., priority 2016, dated 2021) can be followed below.

≈ marks a conversion by molar mass, not a printed value. Read-outs that look alike come from different tables or passages of the source.

The term MIC denotes the lowest concentration that inhibits growth of the organism. Turning to `C[C@@H](NC(=O)Cn1cnnn1)[C@H]1C(=O)N2C(C(=O)O)=C(S[C@@H]3CN[C@H](C(=O)N4C[C@H](N)[C@@H](O)C4)C3)[C@H](C)[C@H]12` [Example 414, (4R,5S,6R)-6-((R)-1-(2-(1H-tetrazol-1-yl)acetamido)ethyl)-3-((3S,5S)-5-((3S,4S)-3-amino-4-hydroxypyrrolidine-1-carbonyl)pyrrolidin-3-ylthio)-4-methyl-7-oxo-1-azabicyclo[3.2.0]hept-2-ene-2-carboxylic acid], the minimum inhibitory concentration (MIC) came to 4 µg/mL (≈ 7.28 µM) in test [1] (setting [5]), 0.5 µg/mL (≈ 0.91 µM) in test [2] (setting [6]), 2 µg/mL (≈ 3.64 µM) in test [3] (setting [7]) and 4 µg/mL (≈ 7.28 µM) in test [4] (setting [8]).
For `C[C@@H](NC(=O)Cn1cnnn1)[C@H]1C(=O)N2C(C(=O)O)=C(S[C@@H]3CN[C@H](C(=O)N4CCN(C(=O)CNC(=N)N)CC4)C3)[C@H](C)[C@H]12` [Example 446, (4R,5S,6R)-6-((R)-1-(2-(1H-tetrazol-1-yl)acetamido)ethyl)-3-((3S,5S)-5-(4-(2-guanidinoacetyl)piperazine-1-carbonyl)pyrrolidin-3-ylthio)-4-methyl-7-oxo-1-azabicyclo[3.2.0]hept-2-ene-2-carboxylic acid], the minimum inhibitory concentration (MIC) came out at 2 µg/mL (≈ 3.16 µM) in test [1] (setting [5]), 0.25 µg/mL (≈ 0.395 µM) in test [2] (setting [6]), 1 µg/mL (≈ 1.58 µM) in test [3] (setting [7]) and 4 µg/mL (≈ 6.32 µM) in test [4] (setting [8]).
On the same counts, the results for `C[C@@H](NC(=O)Cn1cnnn1)[C@H]1C(=O)N2C(C(=O)O)=C(S[C@@H]3CN[C@H](C(=O)N4CCC(CNC(=O)CN)CC4)C3)[C@H](C)[C@H]12` [Example 422, (4R,5S,6R)-6-((R)-1-(2-(1H-tetrazol-1-yl)acetamido)ethyl)-3-((3S,5S)-5-(4-((2-aminoacetamido)methyl)piperidine-1-carbonyl)pyrrolidin-3-ylthio)-4-methyl-7-oxo-1-azabicyclo[3.2.0]hept-2-ene-2-carboxylic acid] are 4 µg/mL (≈ 6.46 µM), 0.25 µg/mL (≈ 0.404 µM), 2 µg/mL (≈ 3.23 µM) and 4 µg/mL (≈ 6.46 µM).
On the same counts, the results for `C[C@@H](NC(=O)Cn1cnnn1)[C@H]1C(=O)N2C(C(=O)O)=C(S[C@@H]3CN[C@H](C(=O)N4CC5C(N)C5C4)C3)[C@H](C)[C@H]12` (stereo partly drawn) [Example 333, (4R,5S,6R)-6-((R) - 1-(2-(1H-tetrazol-1-yl)acetamido)ethyl)-3-((3S,5S)-5-(6-amino-3-azabicyclo[3.1.0]hexane-3-carbonyl)pyrrolidin-3-ylthin)-4-methyl-7-oxo-1-azabicyclo[3.2.0]hept-2-ene-2-carboxylic acid] are 8 µg/mL (≈ 14.7 µM), 0.5 µg/mL (≈ 0.916 µM), 4 µg/mL (≈ 7.33 µM) and 4 µg/mL (≈ 7.33 µM).
For the compound `C[C@@H](NC(=O)Cn1cnnn1)[C@H]1C(=O)N2C(C(=O)O)=C(SCCN)[C@H](C)[C@H]12` [Example 415, (4R,5S,6R)-6-((R)-1-(2-(1H-tetrazol-1-yl)acetamido)ethyl)-3-(2-aminoethylthio)-4-methyl-7-oxo-1-azabicyclo[3.2.0]hept-2-ene-2-carboxylic acid], the MIC amounted to 4 µg/mL (≈ 10.1 µM) in test [1] (setting [5]), 2 µg/mL (≈ 5.06 µM) in test [2] (setting [6]), 1 µg/mL (≈ 2.53 µM) in test [3] (setting [7]) and 16 µg/mL (≈ 40.5 µM) in test [4] (setting [8]).
In the case of `CNCC(=O)N[C@H](C)[C@H]1C(=O)N2C(C(=O)O)=C(SC[C@@H]3C[C@H](NS(N)(=O)=O)CN3)[C@H](C)[C@H]12` [Example 269], the MIC stood at 16 µg/mL (≈ 32.6 µM) in test [1] (setting [5]), 4 µg/mL (≈ 8.15 µM) in test [2] (setting [6]), 4 µg/mL (≈ 8.15 µM) in test [3] (setting [7]) and 128 µg/mL (≈ 261 µM) in test [4] (setting [8]).
As for `C[C@@H](NC(=O)Cn1cnnn1)[C@H]1C(=O)N2C(C(=O)O)=C(S[C@@H]3CN[C@H](C(=O)N4CCN(CCN5CCNCC5)CC4)C3)[C@H](C)[C@H]12` [Example 451, (4R,5S,6R)-6-((R)-1-(2-(1H-tetrazol-1-yl)acetamido)ethyl)-3-methyl-7-oxo-3-((3S,5S)-5-(4-(2-(piperazin-1-yl)ethyl)piperazine-1-carbonyl)pyrrolidin-3-ylthio)-1-azabicyclo[3.2.0]hept-2-ene-2-carboxylic acid], the MIC came out at 8 µg/mL (≈ 12.4 µM) in test [1] (setting [5]), 0.25 µg/mL (≈ 0.387 µM) in test [2] (setting [6]), 1 µg/mL (≈ 1.55 µM) in test [3] (setting [7]) and 2 µg/mL (≈ 3.1 µM) in test [4] (setting [8]).
On to `C[C@@H](NC(=O)Cn1cnnn1)[C@H]1C(=O)N2C(C(=O)O)=C(S[C@@H]3CN[C@H](C(=O)N4CC(O)C(CN)C4)C3)[C@H](C)[C@H]12` (single isomer, unassigned) [Example 511], for which the MIC in test [1] amounted to 4 µg/mL (≈ 7.1 µM); in test [2] (ESBL −ve E. coli ATCC25922), 0.25 µg/mL (≈ 0.444 µM); in test [3] (KPC-2 K. pneumoniae ATCC BAA-1705), 2 µg/mL (≈ 3.55 µM); in test [4] (Meropenem susceptible P. aeruginosa ATCC27853), 1 µg/mL (≈ 1.77 µM).
On to `C[C@@H](NC(=O)Cn1cnnn1)[C@H]1C(=O)N2C(C(=O)O)=C(S[C@@H]3CN[C@H](CN4CC[C@@H](N)C4)C3)[C@H](C)[C@H]12` [Example 391], for which the MIC in test [1] (setting [5]) came out at 1 µg/mL (≈ 1.92 µM); in test [2] (setting [6]), 0.5 µg/mL (≈ 0.962 µM); in test [3] (setting [7]), 0.5 µg/mL (≈ 0.962 µM); in test [4] (setting [8]) it was 4 µg/mL (≈ 7.7 µM).
For the compound `C[C@@H](NC(=O)Cn1cnnn1)[C@H]1C(=O)N2C(C(=O)O)=C(S[C@@H]3CN[C@H](C(=O)N4CC[C@@H](NCCN)C4)C3)[C@H](C)[C@H]12` [Example 401, (4R,5S,6R)-6-((R)-1-(2-(1H-tetrazol-1-yl)acetamido)ethyl)-3-((3S,5S)-5-((R)-3-(2-aminoethylamino)pyrrolidine-1-carbonyl)pyrrolidin-3-ylthio)-4-methyl-7-oxo-1-azabicyclo[3.2.0]hept-2-ene-2-carboxylic acid], the MIC was 8 µg/mL (≈ 13.9 µM) in test [1] (setting [5]), 0.5 µg/mL (≈ 0.867 µM) in test [2] (setting [6]), 2 µg/mL (≈ 3.47 µM) in test [3] (setting [7]) and 2 µg/mL (≈ 3.47 µM) in test [4] (setting [8]).
For the compound `C[C@@H](NC(=O)Cn1cnnn1)[C@H]1C(=O)N2C(C(=O)O)=C(S[C@@H]3CN[C@H](C(=O)N4CC5C[C@@H](NC(=N)N)C[C@]5(CO)C4)C3)[C@H](C)[C@H]12` (stereo partly drawn) [Example 585, (4R,5S,6R)-6-((R)-1-(2-(1H-tetrazol-1-yl)acetamido)ethyl)-3-((3S,5S)-5-((3aR,5R)-5-guanidino-3a-(hydroxymethyl)octahydrocyclopenta[c]pyrrole-2-carbonyl)pyrrolidin-3-ylthio)-4-methyl-7-oxo-1-azabicyclo[3.2.0]hept-2-ene-2-carboxylic acid], the MIC was 2 µg/mL (≈ 3.1 µM) in test [1] (setting [5]), 0.125 µg/mL (≈ 0.194 µM) in test [2] (setting [6]), 1 µg/mL (≈ 1.55 µM) in test [3] (setting [7]) and 4 µg/mL (≈ 6.19 µM) in test [4] (setting [8]).
On the same counts, the results for `C[C@@H](NC(=O)[C@@H]1CSCN1)[C@H]1C(=O)N2C(C(=O)O)=C(S[C@@H]3CN[C@H](C(=O)N4CC[C@@H](N)C4)C3)[C@H](C)[C@H]12` [Example 271] are 2 µg/mL (≈ 3.71 µM), 1 µg/mL (≈ 1.86 µM), 4 µg/mL (≈ 7.43 µM) and 8 µg/mL (≈ 14.9 µM).
In the same order, the values of `C[C@@H](NC(=O)CN1CCC(F)(F)C1)[C@H]1C(=O)N2C(C(=O)O)=C(S[C@@H]3CN[C@H](C(=O)N(C)C)C3)[C@H](C)[C@H]12` [Example 512, (4R,5S,6R)-6-((R)-1-(2-(3,3-difluoropyrrolidin-1-yl)acetamido)ethyl)-3-((3S,5S)-5-(dimethylcarbamoyl)pyrrolidin-3-ylthio)-4-methyl-7-oxo-1-azabicyclo[3.2.0]hept-2-ene-2-carboxylic acid] are 8 µg/mL (≈ 15.1 µM), 2 µg/mL (≈ 3.78 µM), 64 µg/mL (≈ 121 µM) and > 128 µg/mL.
Regarding `C[C@@H](NC(=O)Cn1cnnn1)[C@H]1C(=O)N2C(C(=O)O)=C(S[C@@H]3CN[C@H](C(=O)N4CCN(CC(N)=O)CC4)C3)[C@H](C)[C@H]12` [Example 417, (4R,5S,6R)-6-((R)-1-(2-(1H-tetrazol-1-yl)acetamido)ethyl)-3-((3S,5S)-5-(4-(2-amino-2-oxoethyl)piperazine-1-carbonyl)pyrrolidin-3-ylthio)-4-methyl-7-oxo-1-azabicyclo[3.2.0]hept-2-ene-2-carboxylic acid], the MIC in test [1] (setting [5]) was found to be 8 µg/mL (≈ 13.5 µM); in test [2] (setting [6]), 0.5 µg/mL (≈ 0.847 µM); in test [3] (setting [7]) it was 2 µg/mL (≈ 3.39 µM); in test [4] (setting [8]), 16 µg/mL (≈ 27.1 µM).
In the same order, the values of `CNCC(=O)N[C@H](C)[C@H]1C(=O)N2C(C(=O)O)=C(S[C@@H]3CN[C@H](C(=O)N4C[C@@H](N)C[C@H]4C)C3)[C@H](C)[C@H]12` [Example 287] are 128 µg/mL (≈ 252 µM), 4 µg/mL (≈ 7.86 µM), 8 µg/mL (≈ 15.7 µM) and 16 µg/mL (≈ 31.5 µM).
On the same counts, the results for `C[C@@H](NC(=O)Cn1cnnn1)[C@H]1C(=O)N2C(C(=O)O)=C(S[C@@H]3CN[C@H](C(=O)Nc4ccc(CN)cc4)C3)[C@H](C)[C@H]12` [Example 484, (4R,5S,6R)-6-((R)-1-(2-(1H-tetrazol-1-yl)acetamido)ethyl)-3-((3S,5S)-5-(4-(aminomethyl)phenyl-carbamoyl)-pyrrolidin-3-ylthio)-4-methyl-7-oxo-1-azabicyclo[3.2.0]hept-2-ene-2-carboxylic acid] are 2 µg/mL (≈ 3.51 µM), 1 µg/mL (≈ 1.76 µM), 4 µg/mL (≈ 7.02 µM) and 32 µg/mL (≈ 56.2 µM).
For `C[C@@H](NC(=O)Cn1cnnn1)[C@H]1C(=O)N2C(C(=O)O)=C(S[C@@H]3CN[C@H](C(=O)N4CCCCC45CCNCC5)C3)[C@H](C)[C@H]12` [Example 476, (4R,5S,6R)-3-((3S,5S)-5-(1,9-diazaspiro[5.5]undecane1-carbonyl)pyrrolidin-3-ylthio)-6-((R)-1-(2-(1H-tetrazol-1-yl)acetamido)ethyl)-4-methyl-7-oxo-1-azabicyclo[3.2.0]hept-2-ene-2-carboxylic acid], the MIC came out at 2 µg/mL (≈ 3.32 µM) in test [1] (setting [5]), 1 µg/mL (≈ 1.66 µM) in test [2] (setting [6]), 2 µg/mL (≈ 3.32 µM) in test [3] (setting [7]) and 32 µg/mL (≈ 53.2 µM) in test [4] (setting [8]).
